Measured values reported in patent publication US12577206B2 (BRISTOL-MYERS SQUIBB COMPANY, priority 2020, dated 2026).

Experiments:
[1] = biological target: T1, human FPR2 (Homo sapiens, UniProt P25090); assay: FPR2 cyclic adenosine monophosphate (cAMP) assay; assay type: cell-based; settings: CHO cells overexpressing human FPR2; forskolin 5 μM; inhibition of cAMP production; HTRF; read-out: hFPR2 cAMP2 EC50
T1 sequence (P25090 1-351): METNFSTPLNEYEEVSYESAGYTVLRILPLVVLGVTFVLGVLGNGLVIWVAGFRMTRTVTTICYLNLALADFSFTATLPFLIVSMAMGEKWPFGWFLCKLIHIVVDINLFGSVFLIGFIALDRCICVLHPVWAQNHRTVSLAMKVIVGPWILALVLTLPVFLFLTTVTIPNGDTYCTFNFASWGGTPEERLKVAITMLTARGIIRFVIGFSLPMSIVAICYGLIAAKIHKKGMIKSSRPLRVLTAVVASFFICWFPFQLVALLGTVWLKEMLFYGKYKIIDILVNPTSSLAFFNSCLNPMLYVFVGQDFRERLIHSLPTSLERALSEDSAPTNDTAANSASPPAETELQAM
How it was run: (§1)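 CHO cells overexpressing human FPR1 (4,000/well) or FPR2 (2,000/well) were incubated 30 min at room temperature with compound (0.020 nM to 100 μM, 1% DMSO), IBMX 200 μM, and forskolin at 10 μM (FPR1) or 5 μM (FPR2), all final. HTRF cAMP read-out; inhibition fitted by 4-parameter logistic equation.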

[2] = biological target: T2, human FPR1 (Homo sapiens, UniProt P21462); assay: FPR1 cyclic adenosine monophosphate (cAMP) assay; assay type: cell-based; settings: CHO cells overexpressing human FPR1; forskolin 10 μM; inhibition of cAMP production; HTRF; read-out: hFPR1 cAMP2 EC50
T2 sequence (P21462 1-350): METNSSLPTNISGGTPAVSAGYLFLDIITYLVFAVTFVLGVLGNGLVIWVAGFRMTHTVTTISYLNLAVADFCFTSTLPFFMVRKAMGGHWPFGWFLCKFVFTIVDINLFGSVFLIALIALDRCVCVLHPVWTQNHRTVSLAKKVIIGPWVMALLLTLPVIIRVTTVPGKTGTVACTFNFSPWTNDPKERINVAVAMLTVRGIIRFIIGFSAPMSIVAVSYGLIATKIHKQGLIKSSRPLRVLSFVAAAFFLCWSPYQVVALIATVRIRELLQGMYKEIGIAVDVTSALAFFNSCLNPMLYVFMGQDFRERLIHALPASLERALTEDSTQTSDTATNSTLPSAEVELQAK
How it was run: as §1

Compound | EC50 [1] | EC50 [2]
COc1cc(F)c(-c2c(NC(=O)c3ccc(OC(F)F)cc3)c(=O)n(-c3nc(N4CCN(CC(F)F)CC4)ccc3Cl)n2C)c(F)c1 [Example 240, N-(2-{3-chloro-6-[4-(2,2-difluoroethyl)piperazin-1-yl]pyridin-2-yl}-5-(2,6-difluoro-4-methoxyphenyl)-1-methyl-3-oxo-2,3-dihydro-1H-pyrazol-4-yl)-4-(difluoromethoxy)benzamide] | 2 nM | 1300 nM
COc1cc(F)c(-c2c(NC(=O)c3ccc(OC(F)F)cc3)c(=O)n(-c3nc(N(C)S(C)(=O)=O)ccc3C(F)(F)F)n2C)c(F)c1 [Example 241, N-[5-(2,6-difluoro-4-methoxyphenyl)-1-methyl-2-[6-(N-methylmethanesulfonamido)-3-(trifluoromethyl)pyridin-2-yl]-3-oxo-2,3-dihydro-1H-pyrazol-4-yl]-4-(difluoromethoxy)benzamide] | 2 nM | > 10000 nM
COc1cc(F)c(-c2c(NC(=O)c3ccc(OC(F)F)cc3)c(=O)n(-c3nc(Cl)ccc3Cl)n2C)c(F)c1 [Example 242, N-[2-(3,6-dichloropyridin-2-yl)-5-(2,6-difluoro-4-methoxyphenyl)-1-methyl-3-oxo-2,3-dihydro-1H-pyrazol-4-yl]-4-(difluoromethoxy)benzamide] | 20 nM | > 10000 nM
COc1cc(F)c(-c2c(NC(=O)c3ccc(OC(F)F)cc3)c(=O)n(-c3nc(N[C@H](C)C4CC4)ccc3C(F)(F)F)n2C)c(F)c1 [Example 243, N-[2-(6-{[(1R)-1-cyclopropylethyl]amino}-3-(trifluoromethyl)pyridin-2-yl)-5-(2,6-difluoro-4-methoxyphenyl)-1-methyl-3-oxo-2,3-dihydro-1H-pyrazol-4-yl]-4-(difluoromethoxy)benzamide] | 6 nM | > 10000 nM
CCc1ccc(N2CCN(C)CC2)nc1-n1c(=O)c(NC(=O)c2ccc(OC(F)F)cc2)c(-c2c(F)cc(OC)cc2F)n1C [Example 244, N-[5-(2,6-difluoro-4-methoxyphenyl)-2-[3-ethyl-6-(4-methylpiperazin-1-yl)pyridin-2-yl]-1-methyl-3-oxo-2,3-dihydro-1H-pyrazol-4-yl]-4-(difluoromethoxy)benzamide] | 35 nM | > 10000 nM
COc1ccc(-c2c(NC(=O)c3ccc(OC(F)F)cc3)c(=O)n(-c3ncccc3Cl)n2C)cc1 [Example 245, N-[2-(3-chloropyridin-2-yl)-5-(4-methoxyphenyl)-1-methyl-3-oxo-2,3-dihydro-1H-pyrazol-4-yl]-4-(difluoromethoxy)benzamide] | 20 nM | 1200 nM
COc1ccc(-c2c(NC(=O)c3ccc(OC(F)F)cc3)c(=O)n(-c3ncccc3C(F)(F)F)n2C)cc1C [Example 246, 4-(difluoromethoxy)-N-(5-(4-methoxy-3-methylphenyl)-1-methyl-3-oxo-2-(3-(trifluoromethyl)pyridin-2-yl)-2,3-dihydro-1H-pyrazol-4-yl)benzamide] | 315 nM | > 10000 nM
COc1cc(F)c(-c2c(NC(=O)c3ccc(OC(F)F)cc3)c(=O)n(-c3nc(N4CCN(S(C)(=O)=O)CC4)ccc3Cl)n2C)c(F)c1 [Example 247, N-{2-[3-chloro-6-(4-methanesulfonylpiperazin-1-yl)pyridin-2-yl]-5-(2,6-difluoro-4-methoxyphenyl)-1-methyl-3-oxo-2,3-dihydro-1H-pyrazol-4-yl}-4-(difluoromethoxy)benzamide] | 5 nM | 630 nM
CCOc1ccc(Cl)nc1-n1c(=O)c(NC(=O)c2ccc(OC(F)F)cc2)c(-c2c(F)cc(OC)cc2F)n1C [Example 248, N-[2-(6-chloro-3-ethoxypyridin-2-yl)-5-(2,6-difluoro-4-methoxyphenyl)-1-methyl-3-oxo-2,3-dihydro-1H-pyrazol-4-yl]-4-(difluoromethoxy)benzamide] | 8 nM | > 10000 nM
Cn1c(-c2ccc(Cl)cc2)c(NC(=O)c2ccc(OC(F)F)cc2)c(=O)n1-c1ncccc1C(F)(F)F [Example 249, N-[5-(4-chlorophenyl)-1-methyl-3-oxo-2-[3-(trifluoromethyl)pyridin-2-yl]-2,3-dihydro-1H-pyrazol-4-yl]-4-(difluoromethoxy)benzamide] | 38 nM | 510 nM
COc1ccc(-c2c(NC(=O)c3ccc(OC(F)F)cc3)c(=O)n(-c3ncccc3C(F)(F)F)n2C)cc1 [Example 250, 4-(difluoromethoxy)-N-[5-(4-methoxyphenyl)-1-methyl-3-oxo-2-[3-(trifluoromethyl)pyridin-2-yl]-2,3-dihydro-1H-pyrazol-4-yl]benzamide] | 13 nM | 970 nM
COc1cc(F)c(-c2c(NC(=O)c3ccc(OC(F)F)cc3)c(=O)n(-c3nc(NC4CC4)ccc3C(F)(F)F)n2C)c(F)c1 [Example 251, N-{2-[6-(cyclopropylamino)-3-(trifluoromethyl)pyridin-2-yl]-5-(2,6-difluoro-4-methoxyphenyl)-1-methyl-3-oxo-2,3-dihydro-1H-pyrazol-4-yl}-4-(difluoromethoxy)benzamide] | 2 nM | > 10000 nM
COc1cc(F)c(-c2c(NC(=O)c3ccc(OC(F)F)cc3)c(=O)n(-c3nc(NCC(=O)N(C)C)ccc3C(F)(F)F)n2C)c(F)c1 [Example 252, N-[5-(2,6-difluoro-4-methoxyphenyl)-2-(6-{[(dimethylcarbamoyl)methyl]-amino}-3-(trifluoromethyl)pyridin-2-yl)-1-methyl-3-oxo-2,3-dihydro-1H-pyrazol-4-yl]-4-(difluoromethoxy)benzamide] | 12 nM | > 10000 nM
COc1cc(F)c(-c2c(NC(=O)c3ccc(OC(F)F)cc3)c(=O)n(-c3nc(NC4COC4)ccc3C(F)(F)F)n2C)c(F)c1 [Example 253, N-[5-(2,6-difluoro-4-methoxyphenyl)-1-methyl-2-{6-[(oxetan-3-yl)amino]-3-(trifluoromethyl)pyridin-2-yl}-3-oxo-2,3-dihydro-1H-pyrazol-4-yl]-4-(difluoromethoxy)benzamide] | 5 nM | > 10000 nM
COc1cc(F)c(-c2c(NC(=O)c3ccc(OC(F)F)cc3)c(=O)n(-c3nc(N[C@@H]4CCOC4)ccc3C(F)(F)F)n2C)c(F)c1 [Example 254, N-[5-(2,6-difluoro-4-methoxyphenyl)-1-methyl-3-oxo-2-(6-{[(3R)-oxolan-3-yl]amino}-3-(trifluoromethyl)pyridin-2-yl)-2,3-dihydro-1H-pyrazol-4-yl]-4-(difluoromethoxy)benzamide] | 4 nM | > 10000 nM
COc1cc(F)c(-c2c(NC(=O)c3ccc(OC(F)F)cc3)c(=O)n(-c3nc(N[C@H]4CCOC4)ccc3C(F)(F)F)n2C)c(F)c1 [Example 255] | 2 nM | > 10000 nM
COc1cc(F)c(-c2c(NC(=O)c3ccc(OC(F)F)cc3)c(=O)n(-c3nc(NC(C)(C)CO)ccc3C(F)(F)F)n2C)c(F)c1 [Example 256, N-[5-(2,6-difluoro-4-methoxyphenyl)-2-{6-[(1-hydroxy-2-methylpropan-2-yl)amino]-3-(trifluoromethyl)pyridin-2-yl}-1-methyl-3-oxo-2,3-dihydro-1H-pyrazol-4-yl]-4-(difluoromethoxy)benzamide] | 3 nM | > 10000 nM
